Molecules are shown by their SMILES.

T1 sequence (Q9NY46 whole entry): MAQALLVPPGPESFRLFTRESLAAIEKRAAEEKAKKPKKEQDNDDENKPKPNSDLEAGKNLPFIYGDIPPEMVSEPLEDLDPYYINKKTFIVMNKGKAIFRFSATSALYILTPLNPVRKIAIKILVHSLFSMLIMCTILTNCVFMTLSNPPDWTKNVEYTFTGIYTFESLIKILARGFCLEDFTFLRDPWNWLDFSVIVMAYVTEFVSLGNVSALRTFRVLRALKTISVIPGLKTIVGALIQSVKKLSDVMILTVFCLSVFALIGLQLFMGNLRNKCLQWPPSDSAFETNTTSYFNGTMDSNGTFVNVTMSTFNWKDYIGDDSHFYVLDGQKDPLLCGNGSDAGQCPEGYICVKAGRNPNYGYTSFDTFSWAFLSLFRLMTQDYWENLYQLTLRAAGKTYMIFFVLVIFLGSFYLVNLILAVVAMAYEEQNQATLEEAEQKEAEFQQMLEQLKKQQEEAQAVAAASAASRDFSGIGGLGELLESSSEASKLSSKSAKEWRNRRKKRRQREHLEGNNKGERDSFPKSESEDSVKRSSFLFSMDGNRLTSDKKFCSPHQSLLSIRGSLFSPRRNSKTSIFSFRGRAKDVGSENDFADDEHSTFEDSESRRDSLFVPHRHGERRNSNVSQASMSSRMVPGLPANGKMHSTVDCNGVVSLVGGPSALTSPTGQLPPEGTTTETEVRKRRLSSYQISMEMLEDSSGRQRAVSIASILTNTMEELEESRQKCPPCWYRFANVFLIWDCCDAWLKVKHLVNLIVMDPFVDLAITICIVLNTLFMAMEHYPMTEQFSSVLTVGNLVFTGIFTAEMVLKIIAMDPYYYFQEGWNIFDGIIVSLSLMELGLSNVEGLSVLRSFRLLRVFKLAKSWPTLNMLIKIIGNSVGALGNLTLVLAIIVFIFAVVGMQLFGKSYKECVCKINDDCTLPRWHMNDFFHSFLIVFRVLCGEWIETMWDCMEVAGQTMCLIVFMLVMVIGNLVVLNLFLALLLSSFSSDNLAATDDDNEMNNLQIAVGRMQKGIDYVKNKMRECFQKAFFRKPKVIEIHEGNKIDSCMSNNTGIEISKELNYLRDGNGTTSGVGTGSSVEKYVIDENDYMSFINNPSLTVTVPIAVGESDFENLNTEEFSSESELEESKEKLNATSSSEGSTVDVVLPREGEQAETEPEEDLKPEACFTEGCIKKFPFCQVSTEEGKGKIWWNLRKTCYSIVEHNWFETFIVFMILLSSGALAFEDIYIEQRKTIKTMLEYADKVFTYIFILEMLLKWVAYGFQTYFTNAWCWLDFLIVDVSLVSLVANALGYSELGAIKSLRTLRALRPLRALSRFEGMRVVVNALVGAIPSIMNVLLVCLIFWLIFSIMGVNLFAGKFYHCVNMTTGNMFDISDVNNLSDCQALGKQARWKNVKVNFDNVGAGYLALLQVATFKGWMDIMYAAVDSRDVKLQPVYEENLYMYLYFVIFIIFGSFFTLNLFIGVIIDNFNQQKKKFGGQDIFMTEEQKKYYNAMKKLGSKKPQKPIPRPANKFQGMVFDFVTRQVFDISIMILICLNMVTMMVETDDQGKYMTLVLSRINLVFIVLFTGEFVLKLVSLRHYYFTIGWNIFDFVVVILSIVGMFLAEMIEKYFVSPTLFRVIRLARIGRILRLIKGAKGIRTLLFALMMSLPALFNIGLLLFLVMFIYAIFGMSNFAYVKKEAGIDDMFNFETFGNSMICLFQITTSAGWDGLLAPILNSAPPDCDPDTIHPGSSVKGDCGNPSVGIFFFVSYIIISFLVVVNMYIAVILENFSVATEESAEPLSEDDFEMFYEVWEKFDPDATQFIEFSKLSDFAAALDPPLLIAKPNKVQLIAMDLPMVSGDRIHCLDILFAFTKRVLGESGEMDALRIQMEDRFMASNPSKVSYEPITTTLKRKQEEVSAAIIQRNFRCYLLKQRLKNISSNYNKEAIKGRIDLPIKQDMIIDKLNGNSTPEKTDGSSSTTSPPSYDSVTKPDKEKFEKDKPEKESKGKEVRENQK

This experiment addresses T1, hSCN3A sodium channels (Homo sapiens, UniProt Q9NY46).
T1 construct: expressed in transfected cells
The experiment can be described thus: hSCN3A electrophysiology, whole-cell patch-clamp or PatchXpress 7000, estimated IC-50 (Table B). Format: cell-based. The note with it: estimated IC-50; hSCN3A cells, whole-cell patch-clamp or PatchXpress 7000; read-out: SCN3A EIC-50. In outline:
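Stably transfected HEK cells, whole-cell voltage clamp at 22-24° C, manual or PatchXpress 7000. Cells held at empirically determined inactivation V1/2; current evoked by 20 msec step to 0 mV after 8 sec prepulse to V1/2.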
For `O=C(NCc1cc(F)cc(F)c1F)c1ccc(S(=O)(=O)Nc2nccs2)cc1` [Example 65, 4-[(1,3-Thiazol-2-ylamino)sulfonyl]-N-(2,3,5-trifluorobenzyl)benzamide], the IC50 is 3840 nM. Consider `O=C(NCc1ccc(C(F)(F)F)cc1)c1cccc(S(=O)(=O)Nc2nccs2)c1` [Example 349, 3-[(1,3-Thiazol-2-ylamino)sulfonyl]-N-[4-(trifluoromethyl)benzyl]benzamide], for which the IC50 was 9870 nM. In the case of `O=C(NCc1ccc(OC(F)(F)F)c(F)c1)c1ccc(S(=O)(=O)Nc2ncc(Cl)s2)c(Cl)c1` [Example 365, 3-Chloro-4-{[(5-chloro-1,3-thiazol-2-yl)amino]sulfonyl}-N-[3-fluoro-4-(trifluoromethoxy)benzyl]benzamide], the IC50 was 600 nM.

Consider `Cc1ccccc1O[C@H]1CCN(C(=O)c2ccc(S(=O)(=O)Nc3nccs3)cc2)C1` [Example 198, 4-{[(3S)-3-(2-methylphenoxy)pyrrolidin-1-yl]carbonyl}-N-1,3-thiazol-2-yl-benzenesulfonamide], for which the IC50 was 3030 nM.

Regarding `CC(C)(NC(=O)c1ccc(S(=O)(=O)Nc2nccs2)cc1)c1ccc(Cl)cc1` [Example 124, N-[1-(4-chlorophenyl)-1-methylethyl]-4-[(1,3-thiazol-2-ylamino)sulfonyl]benzamide], the IC50 was 1810 nM. As to `O=C(NCc1ccc(Cl)c(Cl)c1)c1ccc(S(=O)(=O)Nc2ncc(Cl)s2)c(Cl)c1` [Example 368, 3-Chloro-4-{[(5-chloro-1,3-thiazol-2-yl)amino]sulfonyl}-N-(3,4-dichlorobenzyl) benzamide], the IC50 was 400 nM. The figure for `O=C(NCc1ccc(F)c(OC(F)(F)F)c1)c1ccc(S(=O)(=O)Nc2ncc(Cl)s2)cc1` [Example 32, 4-{[(5-Chloro-1,3-thiazol-2-yl)amino]sulfonyl}-N-[4-fluoro-3-(trifluoromethoxy)benzyl]benzamide] is 70 nM; for `O=C(NCc1ccc(C(F)(F)F)cc1)c1ccc(S(=O)(=O)Nc2nccs2)c(F)c1` [Example 303, 3-Fluoro-4-[(1,3-thiazol-2-ylamino)sulfonyl]-N-[4-(trifluoromethyl)benzyl]benzamide] it is 140 nM.

Take `COc1cccc(C2CCCN(C(=O)c3ccc(S(=O)(=O)Nc4nccs4)cc3)C2)c1` (stereo not drawn) [Example 217, 4-{[3-(3-Methoxyphenyl)piperidin-1-yl]carbonyl}-N-1,3-thiazol-2-yl-benzenesulfonamide]: the IC50 is 2910 nM. For the compound `O=C(NCc1ccc(F)c(F)c1)c1ccc(S(=O)(=O)Nc2nccs2)cc1F` [Example 329, N-(3,4-difluorobenzyl)-2-fluoro-4-[(1,3-thiazol-2-ylamino)sulfonyl] benzamide], the IC50 was 360 nM. For the compound `O=C(c1ccc(S(=O)(=O)Nc2nccs2)cc1)N1CCCC(Oc2ccccc2)C1` (stereo not drawn) [Example 277, 4-[(3-Phenoxypiperidin-1-yl)carbonyl]-N-1,3-thiazol-2-yl-benzenesulfonamide], the IC50 was 2190 nM.

Consider `O=C(NCc1ccc(OC(F)(F)F)cc1)c1ccc(S(=O)(=O)Nc2ncc(Cl)s2)cc1F` [Example 360, 4-{[(5-Chloro-1,3-thiazol-2-yl)amino]sulfonyl}-2-fluoro-N-[4-(trifluoromethoxy)benzyl]benzamide], for which the IC50 is 160 nM.

Values taken from US8741934B2, “Inhibitors of ion channels” (Pfizer Limited, priority 2007, dated 2014).
